Converted amounts (≈) assume the structure as drawn.
Tests used:
IL-8 = experiment: LPS-induced IL-8 release in PMA-differentiated U937 cells (ELISA); format: cell-based, human; conditions: for IL-8 inhibition (%): test concentration not given
Protocol: (§1) Cytokine ELISA. LPS-induced IL-8, TNFα concentrations and TNFα-induced IL-8 concentrations are determined by sandwich ELISA according to the manufacturer's instructions (R&D Systems Europe). IC50 values for dexamethasone on IL-8 production are calculated using the computer program Prism 4.0 (GraphPad Software Inc., San Diego, Calif.) as a marker for steroid sensitivity.
(§2) Effects of compounds on LPS-induced IL-8 and TNFα release in PMA-differentiated U937 cells. PMA-differentiated macrophage-like cells are pretreated with compounds described herein for 1 hr, followed by LPS (100 ng/ml) stimulation for 4 hrs. LPS-induced IL-8 and TNFα release is evaluated by ELISA. Values represent means of three experiments±SEM.

HDAC activity = experiment: H2O2-induced reduction of HDAC activity in PMA-differentiated U937 cells; format: cell-based, human; conditions: for restoration of H2O2-reduced HDAC activity (%): test concentration not given, bracketed second value not explained
Protocol: In cell HDAC assay. Cells are incubated with Fluor de Lys™ substrate for 1 hr before lyses. Total HDAC activity from whole cell extracts is measured using the HDAC Fluorimetric Assay/Drug Discovery Kit (BIOMOL® International, Inc., Plymouth Meeting, Pa.).
HDAC expression: In cell HDAC activity assay: U937 is differentiated to macrophage type cells by PMA for 3 days. HDAC fluorescent substrate (Biomol) is added before exposure of oxidative stress (H2O2, 200 μM) or Tobacco smoke conditioned medium for 4 hrs. HDAC activity is measured (Biomol kit). Compounds at different concentrations are treated 20 min before oxidative stress treatment.
PMA-differentiated macrophage-like cells are pretreated with compounds described herein for 20 min. After H2O2 (200 μM) stimulation for 4 hrs, HDAC activity is assayed. Data are expressed as fold changes against positive control treated with H2O2 only. Values represent means of four experiments±SEM.

MMP9 = experiment: PMA-induced MMP9 expression in U937 cells (gelatin zymography); format: cell-based, human; conditions: test concentration not given; bracketed second value not explained
Protocol: Zymography. MMP9 enzyme activity is measured by gelatin zymography. 5 μl of supernatants were diluted with 5 μl Laemli sample buffer (Bio-Rad) and are loaded on a Novex® 10% Zymogram (Gelatin) gel (Invitrogen). After electrophoresis (90 min, 125 V, 35 mA, 5 W) gels are incubated with 1× Novex® zymogram renaturing buffer (Invitrogen) for 30 min at room temperature with gentle agitation. Gels are then rinsed in 1× Novex® zymogram developing buffer (Invitrogen) for 30 min at room temperature with gentle agitation prior to overnight incubation in the developing buffer at 37° C. After incubation the gels are stained using the colloidal blue staining kit (Invitrogen) with buffer containing 20% methanol and 70% distilled water to visualize the zymogen bands. Relevant band intensities are quantified by densitometric analysis using the UVP GelDoc-It system.
Effects of compounds on PMA-induced MMP9 expression in U937 cells. U937 cells are pretreated with compounds described herein for 1 hr, followed by PMA (50 ng/ml) treatment for 48 hrs. After 48 hrs supernatants are collected for zymography. MMP9 enzyme activity is measured by gelatin zymography. Data are expressed as fold changes against positive control treated with PMA only. Values represent means of three experiments±SEM.

TNFα = experiment: LPS-induced TNFα release in PMA-differentiated U937 cells (ELISA); format: cell-based, human; conditions: for TNFα inhibition (%): test concentration not given
Protocol: as §1, §2

H. influenzae ATCC 49247 = experiment: MIC; format: cell-based
[1] = format: cell-based; conditions: test concentration not given
Protocol: The human monocytic cell line U937 and the human type II alveolar epithelial carcinoma cell line A549 were obtained from the American Type Culture Collection (ATCC, Rockville, Md.). PBMCs from COPD patients were obtained in Brompton hospital and separated by AccuSPIN (Sigma-Aldrich, Poole, UK). Cells were cultured in complete growth medium (Sigma-Aldrich) (RPMI 1640 for U937, PBMCs, and Dulbecco's modified essential medium (DMEM) for A549) supplemented with 10% fetal bovine serum (FBS) and 1% L-glutamine at 37° C. in a humidified atmosphere with 5% CO2. U937 were differentiated into an adherent macrophage-like morphology by exposure to PMA (50 or 100 ng/ml) for 48 hrs in complete growth medium. Cell viability was assessed microscopically by trypan blue staining. Cell toxicity was determined by MTT assay as needed. This study was approved by the ethics committee of the Royal Brompton Hospitals, and all subjects gave written informed consent.

[2] = system: S. typhimurium ATCC 14028; experiment: MIC; format: cell-based; conditions: in µg/mL
K. pneumonia 13883 = experiment: MIC; format: cell-based; conditions: in µg/mL
S. aureus MRSA 33591 = experiment: MIC; format: cell-based
[3] = system: N. gonorrhoeae ATCC 49226; experiment: MIC; format: cell-based; set-up: unit not given beside the values
E. coli ATCC 25922 = experiment: MIC; format: cell-based; conditions: in µg/mL
E. faecium ATCC 19434 = experiment: MIC; format: cell-based
[4] = system: S. aureus ATCC 29213 (MSSA) MLS-S; experiment: MIC; format: cell-based
S. pyogenes ATCC 19615 = experiment: MIC; format: cell-based; conditions: in µg/mL
P. aeruginosa ATCC 27853 = experiment: MIC; format: cell-based
S. pneumoniae ATCC 49619 = experiment: MIC; format: cell-based
Akt = experiment: H2O2-induced phosphorylation of Akt in PMA-differentiated U937 cells (western blot); format: cell-based, human; conditions: PMA-differentiated U937; H2O2 1 mM 30 min
Protocol: Cell Lysis and Western Blotting. Whole cell protein extracts are prepared using modified RIPA buffer (50 mM Tris HCL pH 7.4, 0.5% NP-40, 0.25% Na-deoxycholate, 150 mM NaCl with freshly added complete protease (Roche). Phosphatase inhibitor (Active Motif) is also added when required. Protein concentration is determined using the Bio-Rad Protein Assay (Bio-Rad). Proteins are separated by SDS-PAGE under denaturing conditions, and electrotransferred to a nitrocellulose membrane (Amersham Biosciences, Amersham, U.K.) (Western blotting). The membranes are blocked in TBS containing 0.05% Tween 20 and 5% non-fat dried milk, and then incubated with anti-pAkt or Akt antibody followed by an horse radish peroxidase-conjugated secondary antibody (Dako UK Ltd., Ely, UK). Bound antibodies are visualized by ECL Plus (GE Healthcare UK Ltd., Little Chalfont, UK). The band density is calculated by densitometry (UVP Bioimaging Systems, Cambridge, UK) using Labworks software (Ultra-Violet Products, Cambridge, UK).
Effects of compounds on H2O2-induced phosphorylation of Akt in PMA-differentiated U937 cells. PMA-differentiated macrophage-like cells are pretreated with compounds described herein for 20 min. After H2O2 (1 mM) stimulation for 30 min, cells are lysed. Phosphorylation levels of Akt are measured by western blot. Data are calculated relative to total protein, and expressed as fold changes against positive control treated with H2O2 only. Values represent means of three or four experiments±SEM.

Compound	IL-8 inhibition (%) (IL-8)	restoration of H2O2-reduced HDAC activity (%) (HDAC activity)	MMP9 inhibition (%) (MMP9)	TNFα inhibition (%) (TNFα)	MIC H. influenzae ATCC 49247 (H. influenzae ATCC 49247)	Cell Toxicity (% cell death) [1]	MIC S. typhimurium ATCC 14028 [2]	MIC K. pneumonia 13883 (K. pneumonia 13883)	MIC S. aureus MRSA 33591 (S. aureus MRSA 33591)	MIC N. gonorrhoeae ATCC 49226 [3]	MIC E. coli ATCC 25922 (E. coli ATCC 25922)	MIC E. faecium ATCC 19434 (E. faecium ATCC 19434)	MIC S. aureus ATCC 29213 (MSSA) MLS-S [4]	MIC S. pyogenes ATCC 19615 (S. pyogenes ATCC 19615)	MIC P. aeruginosa ATCC 27853 (P. aeruginosa ATCC 27853)	MIC S. pneumoniae ATCC 49619 (S. pneumoniae ATCC 49619)	also measured
CCC1OC(=O)C(C)C(OC2CC(C)(OC)C(OC(C)=O)C(C)O2)C(C)C(OC2OC(C)CC(N(C)C)C2O)C(C)(OC)CC(C)C(=O)C(C)C2N(CCCCn3cc(CN(C)C)nn3)C(=O)OC12C (centres unmarked) [Example 24]	60%	85%	11%	6%	64 µg/mL (≈ 64.3 µM)	−3%											
CCC1OC(=O)C(C)C(OC2CC(C)(OC)C(OC(C)=O)C(C)O2)C(C)C(OC2OC(C)CC(N(C)C)C2O)C(C)(OC)CC(C)C(=O)C(C)C2N(CCCCn3cc(CO)nn3)C(=O)OC12C (centres unmarked) [Example 25]	26%	72 (63) %	10%	15%	4 µg/mL (≈ 4.13 µM)	−8%											
CC[C@H]1OC(=O)[C@H](C)C(=O)[C@H](C)[C@@H](O[C@@H]2O[C@H](C)C[C@H](N(C)C)[C@H]2O)[C@@](C)(OC)C[C@@H](C)CN(C(=O)CCCn2cc(-c3ccc(Br)cc3)nn2)[C@H](C)[C@@H](O)[C@]1(C)O [Example 41]	54%	14%	39 (41) %	45%	> 64 µg/mL	8%	>64	>64	> 64 µg/mL	64	>64	64 µg/mL (≈ 72.7 µM)	64 µg/mL (≈ 72.7 µM)	64	> 64 µg/mL	32 µg/mL (≈ 36.3 µM)	
CCC1OC(=O)C(C)C(OC2CC(C)(OC)C(O)C(C)O2)C(C)C(OC2OC(C)CC(N(C)C)C2O)C(C)(O)CC(C)CN(C)C(C)C2OC(=O)OC12C (centres unmarked) [Example 42]	−27%	104 (79) %	−2%	8%	4 µg/mL (≈ 5.16 µM)	−8%	8-16	8-32	> 64 µg/mL	≤0.125	8-32	8 µg/mL (≈ 10.3 µM)	1 µg/mL (≈ 1.29 µM)	≤0.125	> 64 µg/mL	≤ 0.125 µg/mL	
CC[C@H]1OC(=O)[C@H](C)C(=O)[C@H](C)[C@@H](O[C@@H]2O[C@H](C)C[C@H](N(C)C)[C@H]2O)[C@](C)(OC)C[C@@H](C)C(=O)[C@H](C)[C@H]2N(CCCCn3cnc(-c4cccnc4)c3)C(=O)O[C@]12C [TEL, telithromycin, reference compound]																	inhibition of Akt phosphorylation compared with Example 33 (Akt): only at much higher concentrations than Example 33; inhibition of LPS-induced IL-8 release compared with Example 33 (IL-8; LPS 100 ng/ml 4 hrs): did not show any inhibition at any concentration tested; restoration of HDAC activity compared with Example 33 (HDAC activity; PMA-differentiated U937, H2O2 200 μM 4 hrs): only at much higher doses than Example 33; HDAC activity reached compared with untreated controls (HDAC activity; PMA-differentiated U937, H2O2 200 μM, comparators at highest doses tested): only restore HDAC activity to levels comparable to untreated controls; IC50 (TNFα; Homo sapiens, U-937, LPS-induced TNFα release, PMA-differentiated U937, NA = inactive): 231 ± 37 µM; inhibition of LPS-induced TNFα release compared with Example 33 (TNFα; LPS 100 ng/ml 4 hrs): at higher concentrations than Example 33

— patent US9937194B1, “Compounds and methods for treating inflammatory diseases” (priority 2009, dated 2018)
